Assay results as given in ChEMBL document CHEMBL4130510, “Cytotoxic Dibohemamines D-F from a Streptomyces Species” (J Nat Prod, 2017).

Experiments:
HepG2 = test: Cytotoxicity against human HepG2 cells by SRB assay; assay type: functional, cell-based
A549 = test: Cytotoxicity against human A549 cells by SRB assay; assay type: functional, cell-based

Structure (SMILES) | IC50 (HepG2) [µM] | IC50 (A549) [µM]
CC(C)=CC(=O)NC1=C(CC2=C(NC(=O)C=C(C)C)N3[C@@H](C)[C@H]4O[C@H]4[C@@]3(C)C2=O)C(=O)[C@]2(C)C[C@H](O)[C@H](C)N12 | 0.3 | 1.1
CC(C)=CC(=O)NC1=C(CC2=C(NC(=O)C=C(C)C)N3[C@@H](C)[C@H]4O[C@H]4[C@@]3(C)C2=O)C(=O)[C@]2(C)[C@H](O)C[C@H](C)N12 | 7.3 | 20.2
CC(C)=CC(=O)NC1=C(CC2=C(NC(=O)C=C(C)C)N3[C@@H](C)[C@H]4O[C@H]4[C@@]3(C)C2=O)C(=O)[C@]2(C)[C@@H]3O[C@@H]3[C@H](C)N12 | 10.8 | 39.2
CC(C)=CC(=O)NC1=CC(=O)[C@]2(C)C[C@H](O)[C@H](C)N12 [BOHEMAMINE B] | 181 | 502
CC(C)=CC(=O)NC1=CC(=O)[C@]2(C)[C@@H]3O[C@@H]3[C@H](C)N12 [BOHEMAMINE] | 29.7 | 290
COc1cccc2c1C(=O)c1c(O)c3c(c(O)c1C2=O)C[C@@](O)(C(=O)CO)C[C@@H]3O[C@H]1C[C@H](N)[C@H](O)[C@H](C)O1 [DOXORUBICIN] | – | 1.4
